Read-outs that look alike come from different tables or passages of the source.

Series [1] deals with K-Ras mutant cancer cell lines HCT116. Put plainly: Western blot of p53 and p21 expression in K-Ras mutant HCT116 cells. The following applies: for fold induction at 10 µM: Homo sapiens, HCT-116, HCT116, 10 μM; for Protein expression ratio of compound to control, p21 / Protein expression ratio of compound to control, p53: HCT116, 10 μM, DMSO control = 1.0. It counts as cell-based. On the procedure: To confirm whether the compounds prepared according to Examples 1 to 5 are effective for inhibiting SNAIL-p53 binding at cell level, the compound was treated into K-Ras mutant cancer cell lines HCT116 and results were analyzed by western blotting.
Oncogenic K-ras suppresses the p53 activity through SNAIL. In the cell line HCT116, SNAIL is always expressed by K-Ras mutation and bound to p53 to suppress normal activity of p53. If the K-Ras mutant cancer cell line HCT116 is treated with a compound for suppressing SNAIL-p53 binding, p53 is normally activated and more expressed, and target genes of p53 are induced.
First, western blotting was performed to detect expression of p53 and p21, which is a target gene of p53. All cell lines used in the present invention were obtained from ATCC, and maintained in 10% FBS-containing RPMI-1640 or DMEM. Protein was extracted with RIPA buffer solution and a membrane loaded with cell lysate through typical SDS-PAGE and gel transfer method was prepared. After blocking with 5% non-fat dry milk, the membrane was subjected into a typical western blot procedure with an antibody corresponding to each gene. Antibodies used herein were obtained from Cell signaling, SantaCruz. p53 activity was confirmed by expression of p21, which is a target gene of p53.
A general note: In western blotting, separated proteins are transferred to a membrane and probed.

[2] abbreviates: DMSO control = 1.0, read-out: Protein expression ratio of compound to control, p21.
[3] abbreviates: DMSO control = 1.0, read-out: Protein expression ratio of compound to control, p53.

In general, melting point refers to the temperature of the solid-liquid transition. For the compound `CCCCCSC1=CC(=O)c2ccccc2C1=O` [Compound 1e, 2-pentylthio-1,4-naphthoquinone], the melting point was 111 to 112 °C.
Compound `CCCCCCSC1=CC(=O)c2ccccc2C1=O` [Compound 1f, 2-hexylthio-1,4-naphthoquinone] showed a melting point of 101 to 102 °C.
Same read-out and setting: for `CCCCCCCSC1=CC(=O)c2ccccc2C1=O` [Compound 1g, 2-heptylthio-1,4-naphthoquinone] the value was 114 to 115 °C; for `CCCCCCCCSC1=CC(=O)c2ccccc2C1=O` [Compound 1h, 2-octylthio-1,4-naphthoquinone], 114 to 115 °C.
`CCCCCCCCCSC1=CC(=O)c2ccccc2C1=O` [Compound 1i, 2-nonylthio-1,4-naphthoquinone] registered a melting point of 105 to 106 °C.
The compound `CCCCCCCCCCSC1=CC(=O)c2ccccc2C1=O` [Compound 1j, 2-decylthio-1,4-naphthoquinone] displayed a melting point of 101 to 102 °C.
Regarding `CCNC1=CC(=O)c2c(OC)ccc(OC)c2C1=O` [Compound 5b, 2-ethylamino-5,8-dimethoxy-1,4-naphthoquinone], the melting point fell in the range of 172 to 173 °C.
`CCCNC1=CC(=O)c2c(OC)ccc(OC)c2C1=O` [Compound 5c, 2-propylamino-5,8-dimethoxy-1,4-naphthoquinone] showed a melting point of 175 to 176 °C.
The compound `CCCCNC1=CC(=O)c2c(OC)ccc(OC)c2C1=O` [Compound 5d, 2-butylamino-5,8-dimethoxy-1,4-naphthoquinone] came in with a melting point of 104 to 105 °C.
Take `CCCCCNC1=CC(=O)c2c(OC)ccc(OC)c2C1=O` [Compound 5e, 2-pentylamino-5,8-dimethoxy-1,4-naphthoquinone]: the melting point was 102 to 103 °C.
The same measure, in the same setting: for `CCCCCCNC1=CC(=O)c2c(OC)ccc(OC)c2C1=O` [Compound 5f, 2-hexylamino-5,8-dimethoxy-1,4-naphthoquinone] the value was 83 to 84 °C; for `CCCCCCCNC1=CC(=O)c2c(OC)ccc(OC)c2C1=O` [Compound 5g, 2-heptylamino-5,8-dimethoxy-1,4-naphthoquinone], 74 to 75 °C.
For the compound `CCCCCCCCCNC1=CC(=O)c2c(OC)ccc(OC)c2C1=O` [Compound 5i, 2-nonylamino-5,8-dimethoxy-1,4-naphthoquinone], the fold induction at 10 µM was determined as 4.6 in series [1] (setting [2]) and 1.6 in series [1] (setting [3]).
Take `COc1ccc(OC)c2c1C(=O)C=C(SCCCO)C2=O` [Compound 5l, 2-(3-hydroxypropylthio)-5,8-dimethoxy-1,4-naphthoquinone]: the fold induction at 10 µM in series [1] (setting [2]) worked out at 0.1; in series [1] (setting [3]), 0.6.
The corresponding values for `COc1ccc(OC)c2c1C(=O)C=C(SCCCCCCO)C2=O` [Compound 5n, 2-(6-hydroxyhexylthio)-5,8-dimethoxy-1,4-naphthoquinone] are 0.2 and 1.1.
The corresponding values for `COc1ccc(OC)c2c1C(=O)C=C(SCCC(=O)N1CCN(c3ccccc3)CC1)C2=O` [Compound 6a, 5,8-dimethoxy-2-(3-oxo-3-(4-phenylpiperazin-1-yl)propylthio)naphthalene-1,4-dione] are 2.8 and 1.9.
Consider `COc1ccc(OC)c2c1C(=O)C=C(SCCCCCCCCCCC(=O)NCC(C)C)C2=O` [Compound 7b, 11-(5,8-dimethoxy-1,4-dioxo-1,4-dihydronaphthalene-2-ylthio)-N-isobutyl undecanamide], for which, in series [1], the “Protein expression ratio of compound to control, p21” value stood at 7.0 and the “Protein expression ratio of compound to control, p53” value came to 4.6.
As to `COc1ccc(OC)c2c1C(=O)C=C([S+]([O-])CCCCCCCCCCC(=O)OCC(C)C)C2=O` (stereo not drawn) [Compound 8, isobutyl 11-(5,8-dimethoxyl-1,4-dioxo-1,4-dihydronaphthalene-2-ylsulfinyl) undecanoate], in series [1], the “Protein expression ratio of compound to control, p21” value is on record as 1.7 and the “Protein expression ratio of compound to control, p53” value was 2.3.

These data come from US9400281B2, “Method of screening of therapeutic agents for K-Ras mutant driven cancers” (PUSAN NATIONAL UNIVERSITY INDUSTRY-UNIVERSITY COOPERATION …, priority 2008, dated 2016).
